Experiments:
[1] = Plasma pharmacokinetics of [35S]-labeled PS-oligonucleotides after i.v. bolus administration; type: in vivo; conditions: rats, 10 mg/kg i.v.; for maximum plasma concentration (Cmax): radioactivity, compared with Oligonucleotide HYB0413
From the text: (§1) To carry out pharmacokinetic studies, [^35S]-labeled PS-oligonucleotides were synthesized using phosphoramidite chemistry; the intermediate phosphite linkage was oxidized with [^35S8] to incorporate [^35S]. (Agrawal, et al., Synthetic Methods for the Radioisotopic Labeling of Oligonucleotides, in: Antisense Oligonucleotide from Technology to Therapy (Schlingensiepen, ed.) Blackwell, Berlin, pp. 60-77 (1996)). [^35S] was incorporated at the fifth (oligonucleotide HYB0411) or fourth (oligonucleotide HYB0412 and HYB0413) internucleotide linkage.
(§2) A dose of 10 mg/kg of [^35S]-labeled PS-oligonucleotide was administered intravenously (i.v.) to rats (Wistar rats from Charles River, Wilmington, Mass.). Following administration, plasma was collected after 5, 15 and 30 minutes and after 1, 3, 6, 12, 24 and 48 hours. Radioactivity levels were measured to monitor plasma clearance at each time point. Following administration of PS-oligonucleotide, animals (3 rats/group) were sacrificed at 12, 24 and 48 hours. The following tissues were removed and homogenized: muscle, lung, liver, kidney, and spleen. Radioactive levels were measured, to monitor tissue distribution of each of the oligonucleotides. To follow the excretion of PS-oligonucleotides, urine and feces were collected using metabolism cages at 0-3, 3-6, 6-12, 12-24 and 24-48 hour intervals and radioactivity levels were measured using the methods previously reported (Zhang, et al., Biochem. Pharmacol., 49: 929-939 (1995)).
FIG. 3 illustrates the plasma concentration-time courses of oligonucleotide equivalents after i.v. bolus administration of radiolabeled oligonucleotides into rats, based on quantification of radioactivity. As shown in previous studies (Agrawal, et al., Clin. Pharm. 28:7-16 (1995); Zhang, et al., Biochem. Pharmacol., 49: 929-939 (1995)), PS-oligonucleotides rapidly clear from the plasma. […] No significant difference in plasma elimination half-life (t½β) was observed.

[2] = Tissue distribution of radioactivity after i.v. bolus administration of radiolabeled oligonucleotides; type: in vivo; conditions: rats
From the text: as §1, §2
The oligonucleotide-equivalent concentrations of radioactivity in tissues after i.v. bolus administration of radiolabeled oligonucleotides to rats are shown in FIGS. 4-8. […] Significant differences in distribution pattern were found among the three oligonucleotides. […] Oligonucleotide HYB0411 had the highest kidney concentration: 40% higher than that of Oligonucleotides HYB0412 and HYB0413.

[3] = Chemical forms of radioactivity in tissues by polyacrylamide gel electrophoresis (in vivo stability); conditions: rats
[4] = Cumulative urinary and fecal excretion of radioactivity over 48 hours; type: in vivo; conditions: rats, 10 mg/kg i.v., rank among the three oligonucleotides
Experimental: as §2
FIGS. 9 and 10 show the cumulative excretion of urinary and fecal radioactivity over 48 hours following administration of radiolabeled oligonucleotides. Urinary excretion represented the major pathway of elimination. […] Oligonucleotide HYB0411 had the lowest urinary excretion rate and Oligonucleotide HYB0413 had the highest urinary excretion rate. Fecal excretion was a minor pathway of elimination (FIG. 11); Oligonucleotide HYB0413 had the highest fecal excretion rate.

Row | Substance | maximum plasma concentration (Cmax) [1] | liver concentration, higher than Oligonucleotide HYB0413 ([2]; 10 mg/kg i.v.) | in vivo stability ([3]; b74 compared with Oligonucleotide HYB0411, b75 compared with control oligonucleotide) | absorption ([3]; compared with Oligonucleotide HYB0411) | lung concentration ([2]; 10 mg/kg i.v., compared with HYB0411 and HYB0412) | tissue concentrations in the tissues examined (in general) ([2]; 10 mg/kg i.v., comparison among the three oligonucleotides) | bone marrow concentration ([2]; 12 hours after dosing, compared with HYB0411 and HYB0412, data not shown) | fecal excretion rate [4] | urinary excretion rate [4] | distribution half-life (t½α) ([1]; compared with Oligonucleotides HYB0412 and HYB0413) | kidney concentration, higher than that of Oligonucleotides HYB0412 and HYB0413 ([2]; 10 mg/kg i.v., highest kidney concentration) [%] | degradation in the kidney ([3]; kidney tissue, PAGE after 5'-post labeling)
1 | 5′-CTCTCGCACCCATCTCTCTCCTTCTGTGT-3′ [Oligonucleotide HYB0412] | significantly higher | approximately 50% | superior in vivo stability | greater absorption | – | – | – | – | – | – | – | –
2 | 5′-CTCTCGCACCCATCTCTCTCCTTCT-3′ [Oligonucleotide HYB0413, reference compound] | – | – | – | – | significantly higher concentrations | different from those of Oligonucleotide HYB0411 and Oligonucleotide HYB0412 | higher concentrations | highest | highest | – | – | –
3 | 5′-CTCTCGCACCCATCTCTCTCCTTCTGGGG-3′ (all phosphorothioate, sugars by position and methylation of C not given here) [Oligonucleotide HYB0411] | significantly higher | approximately 50% | – | – | – | – | – | – | lowest | shorter | 40 | time-dependent degradation

— US6489304B2, “Hyperstructure-forming carriers” (Hybridon, Inc., priority 1997, dated 2002)
